The values below come from patent publication US11214538B2, “Farnesoid X receptor agonists and uses thereof” (Metacrine, Inc., priority 2015, dated 2022).

Each structure is given as a SMILES string.

Assay [1] has as its target T1, hFXR (Homo sapiens, UniProt Q96RI1).
T1 construct: expressed in transfected cells; host or cells: CV-1 cells
T1 sequence (Q96RI1 1-486): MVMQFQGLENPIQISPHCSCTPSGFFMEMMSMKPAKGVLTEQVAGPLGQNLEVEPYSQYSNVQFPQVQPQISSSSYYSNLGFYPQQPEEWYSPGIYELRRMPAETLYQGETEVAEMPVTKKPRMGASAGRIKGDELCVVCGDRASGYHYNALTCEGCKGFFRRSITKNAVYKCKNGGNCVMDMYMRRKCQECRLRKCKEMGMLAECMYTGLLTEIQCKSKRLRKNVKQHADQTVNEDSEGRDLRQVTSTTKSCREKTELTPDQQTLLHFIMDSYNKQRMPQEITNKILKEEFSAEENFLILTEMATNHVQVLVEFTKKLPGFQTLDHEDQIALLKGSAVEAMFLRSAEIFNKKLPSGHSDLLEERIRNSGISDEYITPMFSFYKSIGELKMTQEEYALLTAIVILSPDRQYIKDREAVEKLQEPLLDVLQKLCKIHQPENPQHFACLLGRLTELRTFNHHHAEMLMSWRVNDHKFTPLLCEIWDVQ
T1 sequence (P19793 1-462 partner): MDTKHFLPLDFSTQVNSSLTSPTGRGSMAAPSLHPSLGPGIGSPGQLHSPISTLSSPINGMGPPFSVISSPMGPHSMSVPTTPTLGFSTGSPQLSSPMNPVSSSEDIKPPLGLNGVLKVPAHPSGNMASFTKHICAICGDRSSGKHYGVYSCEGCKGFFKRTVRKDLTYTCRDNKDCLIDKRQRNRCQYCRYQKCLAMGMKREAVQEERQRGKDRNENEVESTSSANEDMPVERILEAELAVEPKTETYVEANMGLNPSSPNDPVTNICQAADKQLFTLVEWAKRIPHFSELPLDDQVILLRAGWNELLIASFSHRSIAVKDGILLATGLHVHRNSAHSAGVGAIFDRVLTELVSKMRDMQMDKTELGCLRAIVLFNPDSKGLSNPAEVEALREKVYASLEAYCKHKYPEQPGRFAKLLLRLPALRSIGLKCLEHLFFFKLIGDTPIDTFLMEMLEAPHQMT
Kind of assay: In Vitro FXR Assay (TK), luciferase reporter in transfected CV-1 cells. It is filed as cell-based. The settings on record: CV-1 cells transfected with hFXR, hRXR, TK-ECRE-luc; 18 hrs incubation; luminescence; compounds with a maximum efficacy of <25% of the Fexaramine control classified as '+'. Here is the method: Example B-2: In Vitro FXR Assay (TK)
CV-1 cells were seeded at a density of 2,000,000 cells in a T175 flask with DMEM+10% charcoal double-stripped FBS and incubated at 37° C. in 5% CO2 for 18 h (O/N).
After 18 h of incubation, the medium in the T175 flask was changed with fresh DMEM+10% charcoal super-stripped serum. In a polypropylene tube, 2500 μL OptiMEM (Life Technologies, Cat #31985-062) was combined with expression plasmids for hFXR, hRXR, TK-ECRE-luc and pCMX-YFP. The tube was then briefly vortexed and incubated at room temperature for 5 minutes. Transfection reagent (X-tremeGENE HP from Roche, Cat #06 366 236 001) was added to the OptiMEM/plasmid mixture vortexed and incubated at room temperature for 20 minutes. Following incubation, the transfection reagent/DNA mixture complex was added to cells in the T175 flask and the cells were incubated at 37° C. in 5% CO2 for 18 h (O/N).
Compounds were serially diluted in DMSO and added to transfected CV-1 cells. The cells were then incubated for 18 hrs. The next day cells were lysed and examined for luminescence.
A general note: Reporter assays use an easily measured gene product as a stand-in for the process of interest.

Assay [2] has as its target T1, hFXR. Kind of assay: In Vitro FXR Assay (PGL3), luciferase reporter in transfected CV-1 cells. It is filed as cell-based. Particulars: CV-1 cells transfected with hFXR, hRXR, PGL3-ECRE*6-luc; 18 hrs incubation; luminescence. Here is the method:
Example B-1: In Vitro FXR Assay (PGL3)
CV-1 cells were seeded at a density of 2,000,000 cells in a T175 flask with DMEM+10% charcoal double-stripped FBS and incubated at 37° C. in a 5% CO2 for 18 h (O/N).
After 18 h of incubation, the medium in the T175 flask was changed with fresh DMEM+10% charcoal super-stripped serum.
To prepare the transfection reaction mixture, the transfection reagent (X-tremeGENE HP from Roche, Cat #06 366 236 001) was added in to a 1.5 mL microcentrifuge tube labelled “A” at a ratio of 1:3 (DNA in g: transfection reagent in μL). OptiMEM medium (Life Technologies, Cat #31985-062) was added accordingly to provide a total volume of 1 mL. The transfection reaction mixture was then briefly vortexed and incubated at room temperature for 5 minutes.
In a separate 1.5 mL microcentrifuge tube labelled “B”, 100 μL OptiMEM and plasmids XPD90Gal pCMXhFXRfl, pCMXhRXRfl+PGL3-ECRE*6-luc+CMX-YFP in the ratio 2 g: 2 g:18 g:3 g were added. This microcentrifuge tube “B” was then briefly vortexed and incubated at room temperature for 5 minutes.
The total volume in tube labelled “A” was then transferred in to tube labelled “B.” The mixture was then briefly vortexed and the transfection:DNA complex was then incubated for about 15-20 minutes at room temperature.
Following incubation, the transfection reagent/DNA mixture complex was then added to cells in the T175 flask and the cells were incubated at […] (O/N) at 37° C. in 5% CO2.
In a 96 well plate, a half logarithmic serial dilution was prepared. OptiMEM was used as the diluent. Using any of one of the compounds described herein, a compound stock solution of 10 mM was prepared. An initial 1:100 dilution was made into the first well for a final concentration of 100 μM. The final concentrations in the 96-well plate was prepared by using a multichannel pipette to transfer 5 μL of the diluted compound to 384-well plate in quadruplicate.
Cells in T175 flask were trypsinized and cells were resuspending in 40 mL phenol red free DMEM+10% charcoal super-stripped FBS. Typically, one T175 flask was sufficient to seed two 384 well plates. CV-1 cells were seeded at 45 μL cell suspension/well using a multichannel pipet or a 384 multidrop dispenser. The cells were then incubated for 18 hrs, overnight.
After removing the plates from the incubator, the medium was flicked out of plate and 384 well plate was turned upside down onto paper towel. The remaining medium was gently tapped out. 15 μL lysis buffer was then added to each well using a multichannel pipet or a 384 well multi-drop dispenser. After incubation for 10 minutes at room temperature on shaker, 30 μL Luciferase buffer was added to each well. Luminescence counts were taken immediately using the Perkin Elmer Envision.
The ability of the compounds disclosed herein to […] FXR activity was quantified and the respective EC50 value was determined. Fex=fexaramine.

Broadly, the EC50 is the concentration at which the effect is half-maximal. Low readings indicate higher potency in that assay, high ones lower potency in that assay. `COc1cncc(-c2cccc(N(Cc3ccc(-c4ccc(N(C)C)cc4)cc3)C(=O)C3CCCCC3)c2)c1` [Compound 1, N-((4′-(Dimethylamino)-[1,1′-biphenyl]-4-yl)methyl)-N-(3-(5-methoxypyridin-3-yl)phenyl)cyclohexanecarboxamide] registered a concentration giving a half-maximal response (EC50) at hFXR [1] of at most 3 µM. Also, the “Cmpd/Fex (ratio of the EC50 for the test compound relative to the EC50 of the Fexaramine control)” value at hFXR [2] is “+++ (‘+++’ means Cmpd/Fex <10)”.

As for `COc1cccc(-c2cccc(N(Cc3ccc(-c4ccc(N(C)C)cc4)cc3)C(=O)C3CCCCC3)c2)c1` [Compound 2, N-((4′-(Dimethylamino)-[1,1′-biphenyl]-4-yl)methyl)-N-(3′-methoxy-[1,1′-biphenyl]-3-yl)cyclohexanecarboxamide], on hFXR [2], the “Cmpd/Fex (ratio of the EC50 for the test compound relative to the EC50 of the Fexaramine control)” value is on record as “++ (‘++’ means Cmpd/Fex >10 & <100)”.

`COc1cc(-c2cccc(N(Cc3ccc(-c4ccc(N(C)C)cc4)cc3)C(=O)C3CCCCC3)c2)ccn1` [Compound 3, N-((4′-(Dimethylamino)-[1,1′-biphenyl]-4-yl)methyl)-N-(3-(2-methoxypyridin-4-yl)phenyl)cyclohexanecarboxamide]: the “Cmpd/Fex (ratio of the EC50 for the test compound relative to the EC50 of the Fexaramine control)” value at hFXR [2] was “+++ (‘+++’ means Cmpd/Fex <10)”.

`COCCNc1cccc(N(Cc2ccc(-c3ccc(N(C)C)cc3)cc2)C(=O)C2CCCCC2)c1` [Compound 4, N-((4′-(dimethylamino)-[1,1′-biphenyl]-4-yl)methyl)-N-(3-((2-methoxyethyl)amino)phenyl)cyclohexanecarboxamide] yielded an EC50 at hFXR [1] of 3 to 10 µM. The “Cmpd/Fex (ratio of the EC50 for the test compound relative to the EC50 of the Fexaramine control)” value at hFXR [2] is reported as “+++ (‘+++’ means Cmpd/Fex <10)”.

With `CN(C)CCNc1cccc(N(Cc2ccc(-c3ccc(N(C)C)cc3)cc2)C(=O)C2CCCCC2)c1` [Compound 5, N-((4′-(Dimethylamino)-[1,1′-biphenyl]-4-yl)methyl)-N-(3-((2-(dimethylamino)ethyl)amino)phenyl) cyclohexanecarboxamide], on hFXR [2], the “Cmpd/Fex (ratio of the EC50 for the test compound relative to the EC50 of the Fexaramine control)” value is “+ (‘+’ means Cmpd/Fex >100)”.

Consider `CC(C)CNc1cccc(N(Cc2ccc(-c3ccc(N(C)C)cc3)cc2)C(=O)C2CCCCC2)c1` [Compound 6, N-((4′-(Dimethylamino)-[1,1′-biphenyl]-4-yl)methyl)-N-(3-(isobutylamino)phenyl) cyclohexanecarboxamide], for which the “Cmpd/Fex (ratio of the EC50 for the test compound relative to the EC50 of the Fexaramine control)” value at hFXR [2] is given as “+ (‘+’ means Cmpd/Fex >100)”.

For `CCC/C=C/c1cccc(N(Cc2ccc(-c3ccc(N(C)C)cc3)cc2)C(=O)C2CCCCC2)c1` [Compound 7, (E)-N-((4′-(dimethylamino)-[1,1′-biphenyl]-4-yl)methyl)-N-(3-(pent-1-en-1-yl)phenyl)cyclohexanecarboxamide], on hFXR [1], the EC50 is 3 to 10 µM. Further, at hFXR [2], the “Cmpd/Fex (ratio of the EC50 for the test compound relative to the EC50 of the Fexaramine control)” value is listed as “++ (‘++’ means Cmpd/Fex >10 & <100)”.

On to `CN(C)c1ccc(-c2ccc(CN(C(=O)C3CCCCC3)c3cccc(CN4CCCC4=O)c3)cc2)cc1` [Compound 8, N-((4′-(Dimethylamino)-[1,1′-biphenyl]-4-yl)methyl)-N-(3-((2-oxopyrrolidin-1-yl)methyl)phenyl)cyclohexanecarboxamide], for which the “Cmpd/Fex (ratio of the EC50 for the test compound relative to the EC50 of the Fexaramine control)” value at hFXR [2] is on record as “+ (‘+’ means Cmpd/Fex >100)”.

Turning to `COC(=O)CNc1cccc(N(Cc2ccc(-c3ccc(N(C)C)cc3)cc2)C(=O)C2CCCCC2)c1` [Compound 9, Methyl 2-((3-(N-((4′-(dimethylamino)-[1,1′-biphenyl]-4-yl)methyl)cyclohexanecarboxamido)phenyl)amino)acetate], the concentration for a half-maximal effect (EC50) on hFXR [1] was at most 3 µM. Further, the “Cmpd/Fex (ratio of the EC50 for the test compound relative to the EC50 of the Fexaramine control)” value at hFXR [2] is reported as “++ (‘++’ means Cmpd/Fex >10 & <100)”.

With `COC(=O)CN(C)c1cccc(N(Cc2ccc(-c3ccc(N(C)C)cc3)cc2)C(=O)C2CCCCC2)c1` [Compound 10, Methyl 2-((3-(N-((4′-(dimethylamino)-[1,1′-biphenyl]-4-yl)methyl)cyclohexanecarboxamido)phenyl)(methyl)amino)acetate], the “Cmpd/Fex (ratio of the EC50 for the test compound relative to the EC50 of the Fexaramine control)” value on hFXR [2] was “+ (‘+’ means Cmpd/Fex >100)”.

For the molecule `COC(=O)NCc1cccc(N(Cc2ccc(-c3ccc(N(C)C)cc3)cc2)C(=O)C2CCCCC2)c1` [Compound 11, Methyl 3-(N-((4′-(dimethylamino)-[1,1′-biphenyl]-4-yl)methyl)cyclohexanecarboxamido)benzylcarbamate], the “Cmpd/Fex (ratio of the EC50 for the test compound relative to the EC50 of the Fexaramine control)” value at hFXR [2] is “+ (‘+’ means Cmpd/Fex >100)”.

Regarding `CNC(=O)/C=C/c1cccc(N(Cc2ccc(-c3ccc(N(C)C)cc3)cc2)C(=O)C2CCCCC2)c1` [Compound 12, (E)-N-((4′-(Dimethylamino)-[1,1′-biphenyl]-4-yl)methyl)-N-(3-(3-(methylamino)-3-oxoprop-1-en-1-yl)phenyl)cyclohexanecarboxamide], the “Cmpd/Fex (ratio of the EC50 for the test compound relative to the EC50 of the Fexaramine control)” value on hFXR [2] is recorded as “++ (‘++’ means Cmpd/Fex >10 & <100)”.

Consider `C/C=C\c1cccc(N(Cc2ccc(-c3ccc(N(C)C)cc3)cc2)C(=O)C2CCCCC2)c1` [Compound 17, (Z)-N-((4′-(Dimethylamino)-[1,1′-biphenyl]-4-yl)methyl)-N-(3-(prop-1-en-1-yl)phenyl)cyclohexanecarboxamide], for which the “Cmpd/Fex (ratio of the EC50 for the test compound relative to the EC50 of the Fexaramine control)” value on hFXR [2] was “++ (‘++’ means Cmpd/Fex >10 & <100)”.

For the molecule `CN(C)c1ccc(-c2ccc(CN(C(=O)C3CCCCC3)c3cccc(Oc4ccccc4)c3)cc2)cc1` [Compound 19, N-((4′-(Dimethylamino)-[1,1′-biphenyl]-4-yl)methyl)-N-(3-phenoxyphenyl)cyclohexanecarboxamide], the “Cmpd/Fex (ratio of the EC50 for the test compound relative to the EC50 of the Fexaramine control)” value on hFXR [2] is on record as “+ (‘+’ means Cmpd/Fex >100)”.
